Data taken from ChEMBL document CHEMBL1201862, “PubChem BioAssay data set” (2004).
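Assay format: 96-well plates, 48-hour exposure. GI50 marks 50% less growth.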 Active and inactive are the calls of the source. Cut-off read from the data, not from the text of the source: active = GI50 up to about 1.1 µM and inactive = higher.

Columns and labels:
Test in all cases: NCI-60 cell line screen, 48 h
[1] = tested on: 786-0
[2] = tested on: A498
[3] = tested on: A549
[4] = tested on: ACHN
[5] = tested on: BT-549
[6] = tested on: CAKI-1
[7] = tested on: CCRF-CEM
[8] = tested on: COLO 205
[9] = tested on: DU-145
[10] = tested on: EKVX
[11] = tested on: HCC 2998
[12] = tested on: HCT-116
[13] = tested on: HCT-15
[14] = tested on: HL-60
[15] = tested on: HOP-62
[16] = tested on: HOP-92
[17] = tested on: HT-29
[18] = tested on: Hs-578T
[19] = tested on: IGROV-1
[20] = tested on: K562
[21] = tested on: KM12
[22] = tested on: LOX IMVI
[23] = tested on: M14
[24] = tested on: MCF7
[25] = tested on: MDA-MB-231
[26] = tested on: MDA-MB-435
[27] = tested on: MDA-N
[28] = tested on: MOLT-4
[29] = tested on: Malme-3M
[30] = tested on: NCI-H226
[31] = tested on: NCI-H23
[32] = tested on: NCI-H460
[33] = tested on: NCI/ADR-RES
[34] = tested on: OVCAR-3
[35] = tested on: OVCAR-4
[36] = tested on: OVCAR-5
[37] = tested on: OVCAR-8
[38] = tested on: PC-3
[39] = tested on: RPMI-8226
[40] = tested on: RXF 393
[41] = tested on: SF-268
[42] = tested on: SF-295
[43] = tested on: SK-MEL-28
[44] = tested on: SK-MEL-2
[45] = tested on: SK-MEL-5
[46] = tested on: SK-OV-3
[47] = tested on: SN12C
[48] = tested on: SNB-19
[49] = tested on: SNB-75
[50] = tested on: SW-620
[51] = tested on: T47D
[52] = tested on: TK-10
[53] = tested on: U-251
[54] = tested on: UACC-257
[55] = tested on: UACC-62
[56] = tested on: UO-31
[57] = tested on: NCI-H522
[58] = tested on: SF-539
[59] = tested on: SR

COc1ccc2nc(N/N=C/c3sccc3C)cc(C)c2c1 was tested, and the GI50 [1] was 14.4 µM (inactive), the GI50 [2] was 12.2 µM (inactive) and the GI50 [3] was 20.5 µM (inactive). The GI50 [4] was 16.3 µM (inactive), the GI50 [5] was 15.6 µM (inactive) and the GI50 [6] was > 100 µM (inactive). For the same compound, the GI50 [7] was 19.5 µM (inactive), the GI50 [8] was 13.6 µM (inactive) and the GI50 [9] was 19.4 µM (inactive). The GI50 [10] was 18.2 µM (inactive), the GI50 [11] was 17.5 µM (inactive) and the GI50 [12] was 11.6 µM (inactive). For the same compound, the GI50 [13] was 14.1 µM, the GI50 [14] was 18.3 µM (inactive) and the GI50 [15] was 16.4 µM (inactive). The GI50 [16] was 6.07 µM (inactive), the GI50 [17] was 8.67 µM (inactive) and the GI50 [18] was 18.6 µM (inactive). The GI50 [19] was 15.1 µM (inactive), the GI50 [20] was 38 µM (inactive) and the GI50 [21] was 22.5 µM (inactive). For the same compound, the GI50 [22] was 15.6 µM (inactive), the GI50 [23] was 11.9 µM (inactive) and the GI50 [24] was 22.5 µM (inactive). The GI50 [25] was 0.406 µM (active), the GI50 [26] was 14.1 µM (inactive) and the GI50 [27] was 16.5 µM (inactive). The GI50 [28] was 18.7 µM (inactive), the GI50 [29] was 17.5 µM (inactive) and the GI50 [30] was 18.8 µM (inactive). The GI50 [31] was 10.1 µM (inactive), the GI50 [32] was 13.2 µM (inactive) and the GI50 [33] was 21.6 µM (inactive). For the same compound, the GI50 [34] was 18.8 µM (inactive), the GI50 [35] was 21.4 µM (inactive) and the GI50 [36] was 23.2 µM (inactive). For the same compound, the GI50 [37] was 37.8 µM (inactive), the GI50 [38] was 17.1 µM (inactive) and the GI50 [39] was 9.38 µM (inactive). The GI50 [40] was 19.1 µM (inactive), the GI50 [41] was 16.5 µM (inactive) and the GI50 [42] was 7.23 µM (inactive). For the same compound, the GI50 [43] was 18.1 µM (inactive), the GI50 [44] was 21.6 µM (inactive) and the GI50 [45] was 12.9 µM (inactive). The GI50 [46] was 13.2 µM (inactive), the GI50 [47] was 19.4 µM (inactive) and the GI50 [48] was 29 µM (inactive). The GI50 [49] was 15 µM (inactive), the GI50 [50] was 20.8 µM (inactive) and the GI50 [51] was 42.9 µM (inactive). The GI50 [52] was 12 µM (inactive), the GI50 [53] was 15.4 µM (inactive) and the GI50 [54] was 17 µM (inactive). For the same compound, the GI50 [55] was 13.1 µM (inactive) and the GI50 [56] was 15.1 µM (inactive).
For COc1cccc(C2c3cc4c(cc3OC(NNc3ccccc3)C2C)OCO4)c1O (stereo not drawn), the GI50 [1] was 2.88 µM (inactive), the GI50 [2] was 14 µM (inactive) and the GI50 [3] was 3.65 µM (inactive). For the same compound, the GI50 [4] was 1.5 µM (inactive), the GI50 [5] was 7.18 µM (inactive) and the GI50 [6] was 3.1 µM (inactive). For the same compound, the GI50 [7] was 4.68 µM (inactive), the GI50 [8] was 8.75 µM (inactive) and the GI50 [9] was 5.13 µM (inactive). The GI50 [10] was 4.88 µM (inactive), the GI50 [11] was 2.08 µM (inactive) and the GI50 [12] was 4.4 µM (inactive). For the same compound, the GI50 [13] was 1.62 µM, the GI50 [14] was 4.48 µM (inactive) and the GI50 [15] was 2.51 µM (inactive). The GI50 [16] was 12.6 µM (inactive), the GI50 [17] was 10.9 µM (inactive) and the GI50 [18] was 11.9 µM (inactive). The GI50 [19] was 5.47 µM (inactive), the GI50 [20] was 2.24 µM (inactive) and the GI50 [21] was 2.38 µM (inactive). For the same compound, the GI50 [22] was 12.7 µM (inactive), the GI50 [23] was 2.92 µM (inactive) and the GI50 [24] was 4.67 µM (inactive). The GI50 [25] was 12.6 µM (inactive), the GI50 [26] was 2.59 µM (inactive) and the GI50 [27] was 2.14 µM (inactive). For the same compound, the GI50 [28] was 4.17 µM (inactive), the GI50 [29] was 4.66 µM (inactive) and the GI50 [30] was 14.5 µM (inactive). The GI50 [31] was 10.1 µM (inactive), the GI50 [32] was 2.81 µM (inactive) and the GI50 [57] was 2.36 µM (inactive). For the same compound, the GI50 [34] was 2.71 µM (inactive), the GI50 [36] was 9.38 µM (inactive) and the GI50 [37] was 2.47 µM (inactive). For the same compound, the GI50 [38] was 4.76 µM (inactive), the GI50 [39] was 4.18 µM (inactive) and the GI50 [40] was 12.9 µM (inactive). The GI50 [41] was 12.2 µM (inactive), the GI50 [42] was 2.06 µM (inactive) and the GI50 [58] was 3.18 µM (inactive). The GI50 [43] was 8.77 µM (inactive), the GI50 [44] was 8.55 µM (inactive) and the GI50 [45] was 6.21 µM (inactive). For the same compound, the GI50 [46] was 21.9 µM (inactive), the GI50 [47] was 11.2 µM (inactive) and the GI50 [48] was 12.8 µM (inactive). The GI50 [49] was 6.61 µM (inactive), the GI50 [59] was 1.87 µM (inactive) and the GI50 [50] was 11 µM (inactive). For the same compound, the GI50 [51] was 6.15 µM (inactive), the GI50 [52] was 3.62 µM (inactive) and the GI50 [53] was 5.61 µM (inactive). The GI50 [54] was 4.57 µM (inactive), the GI50 [55] was 2.43 µM (inactive) and the GI50 [56] was 3.32 µM (inactive).
